# Measurements published in patent US20170304281A1, “METHODS OF USING POTASSIUM CHANNEL INHIBITORS (BLOCKERS) FOR FLUID RESUSCITATION” (Loyola University of Chicago, priority 2016, published 2017).
# Where two headings read alike, the source gives them in different places.
# Tests used:
# [1] = system: Kv7 channel; settings: XE991 vs linopirdine; cited from earlier work
# [2] = system: rats hemorrhaged to induce hemorrhagic shock; assay: Fluid resuscitation after hemorrhagic shock, intravenous bolus injection at end of shock period; type: in vivo, rat; settings: for fluid requirements to resuscitate to a MAP of 70 mmHg: mean±SD
# Description: Further phases of the investigation entailed the use of anesthetized male Sprague-Dawley rats that were hemorrhaged to a mean arterial blood pressure (MAP) of 25 mmHg for thirty minutes to induce hemorrhagic shock, followed by fluid resuscitation with normal saline to a MAP of 70 mmHg until t=75 minutes. Hemodynamics and fluid requirements were continuously monitored.
# FIG. 3 contains three plots evidencing the ability of linopirdine to dose-dependently reduce fluid requirements to maintain hemodynamics during resuscitation from induced hemorrhagic shock. At the end of the hemorrhagic shock period (t=30 min), normal saline alone (“vehicle”; n=4), 1 mg/kg (n=5), 3 mg/kg (n=3), or 6 mg/kg (n=3) linopirdine in 0.5 mL normal saline were bolus injected intravenously. Plot “A” represents the mean arterial blood pressure (MAP, mmHg), plot “B” represents the hemorrhage volume in percent of total blood volume, and plot “C” represents the resuscitation fluid requirements to maintain blood pressure at 70 mmHg. Fluid requirements to resuscitate to a MAP of 70 mmHg were: 65±34 mL/kg with normal saline alone and 57±13 mL/kg, 22±8 mL/kg (p<0.05 vs. normal saline alone) and 22±11 mL/kg (p<0.05 vs. normal saline alone) with 1 mg/kg, 3 mg/kg, and 6 mg/kg linopirdine, respectively. The effect of linopirdine to reduce fluid requirements to maintain hemodynamics during resuscitation from hemorrhagic shock appeared to be saturated at a bolus dose of about 3 mg/kg linopirdine. As compared with normal saline-treated animals, a bolus injection of linopirdine (3 mg/kg and 6 mg/kg) reduced fluid resuscitation requirements by 70%. Data are mean±SD. *:p<0.05 vs. normal saline alone. Two-way ANOVA/Bonferroni post-hoc multiple comparison test.
# At the end of the hemorrhagic shock period (t=30 min), normal saline alone (“vehicle”; n=3) or 1 mg/kg (n=3) of XE991 in 0.5 mL normal saline were injected intravenously. Plot “A” represents the mean arterial blood pressure (MAP, mmHg), plot “B” represents the hemorrhage volume in percent of total blood volume, and plot “C” represents the resuscitation fluid requirements to maintain blood pressure at 70 mmHg. […] Data are mean±SD. *:p<0.05 vs. normal saline alone. Two-way ANOVA/Bonferroni post-hoc multiple comparison test.
# [3] = rat, in vivo
# Description: After intravenous injection of 2.5 mg/kg linopirdine, a half-life of 0.6 hours has been determined in rats. Thus, the short half-life would indicate that linopirdine is a drug that is easily controllable if adverse effects were to occur.
# [4] = system: rats hemorrhaged to induce hemorrhagic shock; assay: Fluid resuscitation after hemorrhagic shock, resuscitation fluid (normal saline) supplemented with drug; type: in vivo, rat; settings: for fluid requirements to resuscitate to a MAP of 70 mmHg: mean±SD
# Description: Further phases of the investigation entailed the use of anesthetized male Sprague-Dawley rats that were hemorrhaged to a mean arterial blood pressure (MAP) of 25 mmHg for thirty minutes to induce hemorrhagic shock, followed by fluid resuscitation with normal saline to a MAP of 70 mmHg until t=75 minutes. Hemodynamics and fluid requirements were continuously monitored. […] At the end of the hemorrhagic shock period (t=30 min), animals were resuscitated with normal saline alone (“vehicle”; n=4) or normal saline supplemented with 1.25 (n=4), 6.25 (n=3), 12.5 (n=4), or 200 (n=6) […] of linopirdine. Plot “A” represents the mean arterial blood pressure (MAP, mmHg), plot “B” represents the hemorrhage volume in percent of total blood volume, and plot “C” represents the resuscitation fluid requirements to maintain blood pressure at 70 mmHg. Fluid requirements to resuscitate to a MAP of 70 mmHg were: 73±12 mL/kg with NS, 72±24 mL/kg with NS supplemented with 1.25 μg/mL linopirdine and 61±20 mL/kg, 36±9 mL/kg (p<0.05 vs. NS alone) and 31±9 mL/kg (p<0.05 vs. NS alone) with NS supplemented with 6.25 μg/mL, 12.5 μg/mL and 200 μg/mL linopirdine, respectively. […] Data are mean±SD. *:p<0.05 vs. normal saline alone. Two-way ANOVA/Bonferroni post-hoc multiple comparison test.
# [5] = intravenous injection of 2.5 mg/kg in rats; cited from earlier work
# [6] = oral administration in humans; cited from earlier work
# [7] = phase 1 and phase 2 clinical trials as cognition-enhancing drug in Alzheimer's disease; cited from earlier work
# [8] = system: normal rats; assay: Effect of intravenous bolus doses on blood pressure in normal anesthetized rats (sham, no hemorrhage); type: in vivo, rat; settings: for peak mean arterial blood pressure (MAP): normal rats n=3, baseline MAP 92±2.5 mmHg, mean±SD
# Description: Initial phases of the investigation entailed the administration of linopirdine to anesthetized male Sprague-Dawley rats to determine its effect on blood pressure. Hemodynamics and fluid requirements were continuously monitored.
# FIG. 1 contains a plot representing the effect of linopirdine on blood pressure in normal rats (sham—no hemorrhage, n=3) that received five increasing intravenous (i.v.) bolus doses of linopirdine (0.1-6 mg per kg of body weight) in 0.5 mL normal saline (NS) at fifteen minute intervals. […] Data are mean±SD.
# FIG. 2 contains a plot representing the effect of the Kv7 channel activator retigabine on blood pressure when administered to normal rats (sham—no hemorrhage, n=3) by intravenous injection in increasing dosages of 0.1 mg/kg, 0.5 mg/kg, 1 mg/kg, 3 mg/kg, 6 mg/kg, and 12 mg/kg in 0.5 mL normal saline. […] Data are mean±SD.
structure (smiles),measurement,setting,value
O=C1c2ccccc2C(Cc2ccncc2)(Cc2ccncc2)c2ccccc21 [XE991],potency for channel blockade relative to linopirdine,[1],five to ten-fold higher potency
same,effect on resuscitation fluid requirements relative to linopirdine,"[2]; XE991 1 mg/kg i.v. bolus, n=3, compared with linopirdine 3 mg/kg and 6 mg/kg",comparable effect
O=C1N(c2ccccc2)c2ccccc2C1(Cc1ccncc1)Cc1ccncc1 [linopirdine],toxicity associated with treatment,[3],No toxicity
same,fluid requirements to resuscitate to a MAP of 70 mmHg,"[4]; NS supplemented with 1.25 μg/mL linopirdine, n=4, NS alone 73±12 mL/kg",72 ± 24 mL/kg
same,fluid requirements to resuscitate to a MAP of 70 mmHg,"[4]; NS supplemented with 6.25 μg/mL linopirdine, n=3, NS alone 73±12 mL/kg",61 ± 20 mL/kg
same,fluid requirements to resuscitate to a MAP of 70 mmHg,"[4]; NS supplemented with 12.5 μg/mL linopirdine, n=4, p<0.05 vs. NS alone (73±12 mL/kg), cumulative dose 0.446 mg/kg",36 ± 9 mL/kg
same,fluid requirements to resuscitate to a MAP of 70 mmHg,"[4]; NS supplemented with 200 μg/mL linopirdine, n=6, p<0.05 vs. NS alone (73±12 mL/kg)",31 ± 9 mL/kg
same,concentration in normal saline at which the effect was saturated,"[4]; supplemented resuscitation fluid, hemorrhagic shock rats",12.5 µg/mL
same,half-life,[5],36 min
same,half-life,[6],24 to 192 min
same,fluid requirements to resuscitate to a MAP of 70 mmHg,"[2]; 1 mg/kg i.v. bolus at t=30 min, n=5, normal saline alone 65±34 mL/kg",57 ± 13 mL/kg
same,fluid requirements to resuscitate to a MAP of 70 mmHg,"[2]; 3 mg/kg i.v. bolus at t=30 min, n=3, p<0.05 vs. normal saline alone (65±34 mL/kg)",22 ± 8 mL/kg
same,fluid requirements to resuscitate to a MAP of 70 mmHg,"[2]; 6 mg/kg i.v. bolus at t=30 min, n=3, p<0.05 vs. normal saline alone (65±34 mL/kg)",22 ± 11 mL/kg
same,reduction of fluid resuscitation requirements compared with normal saline-treated animals,[2]; bolus injection 3 mg/kg and 6 mg/kg,70%
same,bolus dose at which the fluid-sparing effect appeared saturated,"[2]; i.v. bolus, hemorrhagic shock rats",about 3 mg/kg
same,reduction of resuscitation fluid requirements at saturating dose,[2]; single dose of three milligrams per kilogram at beginning of fluid resuscitation,65%
same,adverse effects in clinical trials,[7],no relevant adverse effects
same,transient increase of mean arterial blood pressure,"[8]; 6 mg/kg i.v. injection, normal rats",approximately 10%
same,reversal of retigabine-induced hypotension,"[8]; 6 mg/kg linopirdine injected after last (12 mg/kg) dosage of retigabine, normal rats",able to be reversed
same,time for MAP to return to baseline after bolus,"[8]; 0.1-6 mg/kg i.v. bolus doses, normal rats",ten to fifteen
same,effect on systemic blood pressures,"[8]; high i.v. bolus dose 6 mg/kg and total i.v. dose 10.6 mg/kg within one hour, normotensive rats",only minimal and short-lived increases
same,peak mean arterial blood pressure (MAP),[8]; linopirdine 0.1 mg/kg i.v. bolus,92±2 mmHg
same,peak mean arterial blood pressure (MAP),[8]; linopirdine 0.5 mg/kg i.v. bolus,93±2 mmHg
same,peak mean arterial blood pressure (MAP),[8]; linopirdine 1 mg/kg i.v. bolus,95±4 mmHg
same,peak mean arterial blood pressure (MAP),[8]; linopirdine 3 mg/kg i.v. bolus,100±2 mmHg
same,peak mean arterial blood pressure (MAP),[8]; linopirdine 6 mg/kg i.v. bolus,105±0.6 mmHg
